Molecules are shown by their SMILES.

One may read the melting point as the temperature of the solid-liquid transition.

`O=C=Nc1ccc(NCc2ccc(F)c(Cl)c2)c(C(F)(F)F)c1` registered a melting point of 144 to 146 °C.

In the case of `CO[C@]1(c2cnc(S)s2)CCO[C@@H]1C` (racemic), the melting point was in the range of 126 to 127 °C. As to `CCc1cccc2c(C(C)=CC(=O)O)cc(OC)c(O)c12`, the melting point was 114 to 115 °C.

`NCCCc1cc(Nc2nc(-c3ccccc3)nc3ccccc23)[nH]n1`: the melting point lay within 205 to 207 °C. In the case of `Cc1ccc(C=C(F)C(=O)NC(Cc2ccccc2)C(=O)O)cc1` (stereo not drawn) it was 163 to 164 °C; in that of `CC(C)(C)c1cc(OCc2n[nH]c(=O)o2)cc(C(C)(C)C)c1O`, 138 to 140 °C; in that of `c1ccc(C2(n3ccnc3)c3ccccc3C(c3ccccc3)(n3ccnc3)c3ccccc32)cc1` (stereo not drawn), 258 to 260 °C.

In turn, `O=C(Nc1ccc(N2CCC(C(C(=O)O)c3ccccc3)CC2)cc1)c1ccccc1-c1ccc(C(F)(F)F)cc1` (stereo not drawn) displayed a melting point of 196 °C. Molecule `O=C(O)c1oc(=O)c2ccccc2c1-c1ccc(F)cc1` yielded a melting point of 218 to 220 °C. `COC(=N)NC(=O)CCl` had a melting point of 123 °C. To `O=C(Oc1ccccc1)N1CCCc2nc3ccccc3c(O)c2C1` belongs 299 °C; to `CC(C)(C)CN1C(=O)C(=O)N(c2ccc(F)cc2F)C1=S`, 156 to 157 °C; to `O=C(O)CCc1cnoc1-c1ccccc1`, 90 to 91 °C. `COc1ccc(CNc2ccncc2)c2c1OCC2C` (stereo not drawn) yielded a melting point of 138 to 145 °C. In turn, `Cc1cc(C)nc(N(C(=O)NS(C)(=O)=O)c2ccccc2)n1` showed a melting point of 186 to 192 °C. `Cc1cnc(NCCc2ccccn2)c(=O)n1NC(=O)CCc1cccc(Cl)c1`: the melting point was in the range of 201 to 207 °C. `Cn1c(CNCC(C)(C)C)cc2cc(NC(=O)c3ccc(C#CC4(O)CCC4)cc3)ccc21` came in with a melting point of 160 to 161 °C. To `COc1ccc(-c2cnc3cc4cnn(C[C@@H](O)CO)c4cc3n2)cc1F` belongs 228 to 234 °C. The molecule `COc1ccc2c(c1)CCC1C2CCC2(C)C=CCC12` (stereo not drawn) yielded a melting point of 164 to 168 °C. In the case of `Clc1nc(C(c2ccccc2)(c2ccccc2)n2ccnc2)nc(Cl)c1Cl` it was 142 to 146 °C; in that of `O=C1Nc2cc(Cl)ccc2/C1=C\c1cccc(C(F)(F)F)c1`, 157 to 160 °C.

In turn, `CC(=O)c1ccc(CNC(=O)c2cccnc2Oc2cccnc2)s1` displayed a melting point of 201 to 203 °C. As to `O=C(COc1cccc(-n2nc(-c3ccc(F)cc3)c3cccnc32)c1)NCCO`, the melting point was 161 to 163 °C. With `Nc1nc(I)nc2c1ncn2C1OC(CO)C(O)C1O` (stereo not drawn), the melting point is 141 to 144 °C. Consider `COC(=O)C[C@@H](CC(=O)/C=C/c1c(-c2ccc(F)cc2)c(-c2ccc(F)cc2)c(C(=O)Nc2cccc(C(=O)N(C)C)c2)n1C(C)C)O[Si](C)(C)C(C)(C)C`, for which the melting point was 135 to 137 °C. Regarding `Fc1cccc(-c2ncc(-c3cnc(-c4ccccc4)[nH]3)cn2)c1`, the melting point came to 240 °C.

In turn, `C=CCC(C)(C)C(NC(=O)c1ccc(Cl)cc1)Nc1c(Nc2cccnc2)c(=O)c1=O` (stereo not drawn) showed a melting point of 242 to 243 °C. In turn, `CCOC(Nc1ccccc1)(OCC)C1(Cl)C=CN=C(C(=O)c2ccccc2)C1` (stereo not drawn) yielded a melting point of 133 to 134 °C. Take `N#Cc1cccc(-c2ccc(C#N)c(Cn3cncn3)c2)c1`: the melting point was in the range of 160 to 161 °C. As for `O=[N+]([O-])c1cc2c(cc1O)CCCC2`, the melting point fell in the range of 88 to 89 °C. With `OCCN1CCOC(c2ccccc2)(c2ccccc2)CC1`, the melting point lay in the range of 122 to 123 °C. `O=S(=O)(O)CCCCN1CCN(C(c2ccc(F)cc2)c2ccccn2)CC1` (stereo not drawn) showed a melting point of 231 to 232 °C. Molecule `O=C1CNc2cc(Br)c(Cl)cc2N1` came in with a melting point of 230 to 232 °C.

`CC(C)(C)C(=O)Nc1ccc2oc3c(c2c1)CCCC3` returned a melting point of 210 to 211 °C.

The molecule `COc1ccc(CC(=O)Nc2ccc3sc(C)nc3c2Cl)cc1` registered a melting point of 173 to 174 °C. The molecule `CNC(C)C/C=C/c1cnc(N)c(C)c1` (stereo not drawn) yielded a melting point of 78 to 81 °C. On to `CC(=O)Nc1ccc(C(O)CO)cn1` (stereo not drawn), for which the melting point lay within 184 to 185 °C. Consider `CSc1nc(N)c(C#N)nc1C#N`, for which the melting point was in the range of 250 to 252 °C. Take `CS(=O)c1ccc(-c2cc(C(F)F)nn2-c2ccc3c(c2)OCO3)cc1` (stereo not drawn): the melting point was 104 to 105 °C. On to `CC(=O)Oc1ccc(NC(=O)OC(C)(C)C)cc1C(=O)O`, for which the melting point fell in the range of 76 to 78 °C. `CC(=O)N1CCN=C1Nc1cc(C)nn1-c1ccc(Cl)cc1C`: the melting point is 195 °C.

Take `CCOc1cc2c(O)c(C(=O)O)cnc2nc1C`: the melting point is 259 to 261 °C. For the molecule `Nc1ccc(S(=O)(=O)C[N+](=O)[O-])cc1`, the melting point fell in the range of 132 to 133 °C. For `O=C(c1cn(-c2cccc(-c3ccccc3)c2)cn1)n1cccn1`, the melting point was in the range of 124 to 127 °C. On to `CNS(=O)(=O)c1ccc2c3c(cc([N+](=O)[O-])c2c1)N(C(=O)c1cc2cc(OCCN(C)C)ccc2[nH]1)CC3CCl` (stereo not drawn), for which the melting point is more than 350 °C. Turning to `N#Cc1ccc(NC(=O)CN2CCC(Cc3ccc(F)cc3)CC2)cc1`, the melting point is 113 to 116 °C. As for `COc1cc2c(c(OS(=O)(=O)c3ccc(C)cc3)c1OC)C1=C(CCC1)C(=O)CC2`, the melting point came to 138 °C.

Molecule `CCOC(=O)c1cnc2nc(OCC)ccc2c1Cl` gave a melting point of 72 to 75 °C. With `CCCc1nn(-c2ccc(C(F)(F)F)cn2)cc1CCCOc1cc(CCC(=O)O)n(C)n1`, the melting point fell in the range of 80 to 81 °C. Regarding `Oc1ccc(CCc2nc(-c3cccs3)c[nH]2)cc1`, the melting point is 166 to 167 °C. `CCOC(=O)c1[nH]c(C)nc1C(=S)OCC` showed a melting point of 119 to 121 °C. `Cc1noc(=O)c2ccc(NC(=O)C(C)(O)CC3(c4cccc(C(F)(F)F)c4)CC3)cc12` (stereo not drawn) showed a melting point of 75 to 76 °C. For the molecule `Nc1nc2c(ncn2OCC(O)CP(=O)(O)O)c(=O)[nH]1` (stereo not drawn), the melting point was 258 to 260 °C. In the case of `Cc1cc(C(=O)c2ccc(Cl)cc2)ccc1N` it was 113 to 116 °C. `COc1ccc(-c2c(C)c3ccc(OC(C)=O)c(O)c3oc2=O)c(OC)c1` returned a melting point of 140 to 141 °C. Regarding `Fc1ccc(-n2nccc2-c2ccnc(NCc3ccccc3)c2)cc1`, the melting point was 125 to 127 °C.

In turn, `C[C@@H]1c2cc(F)ccc2-c2ccc(F)cc2N1S(=O)(=O)c1ccc(O)cc1O` gave a melting point of 153 to 156 °C. The molecule `COC(=O)C1OC(Oc2ccc(C=O)cc2[N+](=O)[O-])C(OC(C)=O)C(OC(C)=O)C1OC(C)=O` (stereo not drawn) gave a melting point of 180 to 182 °C.

In the case of `Cc1nn(C)c2c1Nc1ncccc1N(C)C2=O`, the melting point is 141 to 142 °C. The molecule `CCOC(=O)NNC(=O)Cl` came in with a melting point of 77 to 80 °C. The molecule `CCCCC1=C(c2ccc(F)cc2)C(=NO)CC1` came in with a melting point of 115 to 116 °C. In the case of `Cc1cc(-c2nnn(C)n2)cc(C)c1OCCCCC1Cc2cccnc2N1C` (stereo not drawn), the melting point was in the range of 54 to 57 °C. As for `O=c1[nH]c(-c2ccc(Cl)cc2)c(CN2CCOCC2)s1`, the melting point came to 206 °C. Regarding `CS(=O)(=O)N(Cl)C(=O)c1cc(Oc2ccc(C(F)(F)F)cc2Cl)ccc1[N+](=O)[O-]`, the melting point is 160 to 161 °C. The molecule `O=c1cc(N2CCOCC2)oc2ccc(Cl)cc12` yielded a melting point of 194 to 195 °C. On to `O=C1C(=O)N(c2cccc3ccccc23)C(=O)N1c1ccccc1`, for which the melting point lay in the range of 105 to 108 °C.

`Cc1nc2ncnn2c(C2CCCCC2)c1-c1c(F)cc(OCCCN(C)C)cc1F`: the melting point lay in the range of 95 to 97 °C.

With `COc1cc(C(=O)O)ccc1Cn1nnc2ccc(NC(=O)OC3CCCC3)cc21`, the melting point was in the range of 237 to 239 °C. In the case of `Cc1cccc(-c2nc3ccc(Cl)nn3c2-c2ccnc(N)c2)c1` it was 247 to 248 °C; in that of `N#Cc1cc(Cn2cncn2)cc(-c2ccc(OS(N)(=O)=O)c(Cl)c2)c1`, 163 to 164 °C. For `CCOC(=O)Cn1c2cccccc-2c(C(=O)OCC)c1=O`, the melting point lay within 115 to 120 °C. `CC(C)(C)OC(=O)N1CCC[C@@H](Nc2ncc3c(n2)-c2ccccc2[C@@H](c2ccc(Cl)c(Cl)c2)C3)C1` returned a melting point of 85 to 87 °C. `CC(=O)Nc1cccc2c1C(=O)c1c-2n[nH]c1-c1cccs1` yielded a melting point of 269 °C.

The molecule `CC(=O)Nc1cccc2c(OC(C)=O)c(S(=O)(=O)NC(C)(C)C)ccc12` displayed a melting point of 203 to 206 °C.

Molecule `O=C(c1ccc(F)cc1)n1c2c(c3ccccc31)CC(C(=O)O)(C(=O)O)CC2` returned a melting point of 190 to 195 °C. `CCOC(=O)[C@H](Cc1ccc(-c2c(OC)cc(CN3CCSCC3)cc2OC)cc1)NC(=O)c1c(Cl)cccc1Cl` showed a melting point of 86 to 89 °C. Molecule `CCC(=O)N1CCC(C(=O)O)CC1` had a melting point of 91 to 94 °C.

Regarding `N#Cc1cc(-c2nc3ccccc3s2)ccc1N`, the melting point lay within 207 to 211 °C.

Regarding `CC(=O)Nc1c(C(=O)c2ccccc2)[nH]c2ccc([N+](=O)[O-])cc12`, the melting point was in the range of 210 to 212 °C. For the molecule `CN1C(=O)[C@H](NC(=O)/C=C/c2ccc([N+](=O)[O-])cc2)N=C(c2ccccc2)c2ccccc21`, the melting point lay in the range of 165 to 166 °C. To `COC(=O)c1ccc(Cn2c(=O)c(C)c3sc(C(=O)NCc4ccc(F)cc4)cn3c2=O)cc1Cl` belongs 176 to 178 °C. `COc1cc(OC)c(CSC(C)(C)CCO)c(OC)c1` gave a melting point of 69 to 72 °C.

`COc1cc(Nc2nc3cccc(-c4ccc(NS(C)(=O)=O)cc4)c3o2)cc(OC)c1OC` gave a melting point of 222 to 225 °C. Regarding `CC1CCC(C(C)C)C(OC2C=CC(=O)O2)C1` (stereo not drawn), the melting point was in the range of 70 to 71 °C. Consider `CCCCCCCCCCOc1ccc(OCc2ccccc2)c(C(=O)N(CC(=O)O)CC(=O)O)c1`, for which the melting point lay in the range of 74 to 78 °C. To `COCCOC(=O)c1ccc(C)c(-n2c(C)cc(OCc3ccccc3CNC(=O)Nc3cc(C(C)(C)C)nn3-c3cccc(OCCO)c3)c(Cl)c2=O)c1` belongs 143 to 145 °C; to `COc1ccc(-c2ccc3nnn(Cc4ccc5ncccc5c4)c3n2)cc1F`, 187 to 190 °C. To `CCCCSC(=S)N1C(CO)Cc2c([nH]c3ccccc23)C1C` (stereo not drawn) belongs 110 to 113 °C.

For the origin of these results see a melting point compilation (Tetko et al.; mined from patent text by program, amines drawn as free bases though some values may be those of a salt).
